Source: US9090615B2, “Adamantyl derivatives as cannabinoid receptor 2 agonists” (Hoffmann-La Roche Inc., priority 2012, dated 2015)
pEC50: −log10 of the molar value. Like-named read-outs stand apart in the source and are kept apart here.

Assays:
[1] = biological target: T1, human CB1 receptors (Homo sapiens, UniProt P21554); assay: functional cAMP assay, CHO cells expressing human CB1; assay type: cell-based
T1 construct: expressed in transfected cells; host or cells: CHO cells
Description: CHO cells expressing human CB1 or CB2 receptors are seeded 17-24 hours prior to the experiment 50.000 cells per well in a black 96 well plate with flat clear bottom (Corning Costar #3904) in DMEM (Invitrogen No. 31331), 1×HT supplement, with 10% fetal calf serum and incubated at 5% CO2 and 37° C. in a humidified incubator. The growth medium was exchanged with Krebs Ringer Bicarbonate buffer with 1 mM IBMX and incubated at 30° C. for 30 min. Compounds were added to a final assay volume of 100 μl and incubated for 30 min at 30° C. Using the cAMP-Nano-TRF detection kit the assay (Roche Diagnostics) was stopped by the addition of 50 μl lysis reagent (Tris, NaCl, 1.5% Triton X100, 2.5% NP40, 10% NaN3) and 50 μl detection solutions (20 μM mAb Alexa700-cAMP 1:1, and 48 μM Ruthenium-2-AHA-cAMP) and shaken for 2 h at room temperature. The time-resolved energy transfer is measured by a TRF reader (Evotec Technologies GmbH), equipped with a ND:YAG laser as excitation source. The plate is measured twice with the excitation at 355 nm and at the emission with a delay of 100 ns and a gate of 100 ns, total exposure time 10 s at 730 (bandwidth 30 nm) or 645 nm (bandwidth 75 nm), respectively. The FRET signal is calculated as follows: FRET=T730-Alexa730-P(T645-B645) with P=Ru730-B730/Ru645-B645, where T730 is the test well measured at 730 nM, T645 is the test well measured at 645 nm, B730 and B645 are the buffer controls at 730 nm and 645 nm, respectively. cAMP content is determined from the function of a standard curve spanning from 10 μM to 0.1 nM cAMP.
EC50 values were determined using Activity Base analysis (ID Business Solution, Limited). The EC50 values for a wide range of cannabinoid agonists generated from this assay were in agreement with the values published in the scientific literature.

[2] = biological target: T2, human CB2 receptors (Homo sapiens, UniProt P34972); assay: functional cAMP assay, CHO cells expressing human CB2; assay type: cell-based
T2 construct: expressed in transfected cells; host or cells: CHO cells
T2 sequence (P34972 whole entry): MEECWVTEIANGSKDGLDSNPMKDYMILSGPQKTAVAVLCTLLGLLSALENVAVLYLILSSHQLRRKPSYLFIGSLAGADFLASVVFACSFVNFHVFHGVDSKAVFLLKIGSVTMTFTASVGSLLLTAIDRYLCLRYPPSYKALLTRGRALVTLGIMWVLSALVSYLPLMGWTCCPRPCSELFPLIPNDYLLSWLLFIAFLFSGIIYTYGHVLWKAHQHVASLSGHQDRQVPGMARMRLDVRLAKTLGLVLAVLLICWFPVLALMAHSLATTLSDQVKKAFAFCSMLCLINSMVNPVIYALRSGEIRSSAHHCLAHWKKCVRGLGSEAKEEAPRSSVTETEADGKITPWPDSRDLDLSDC
Description: The growth medium was exchanged with Krebs Ringer Bicarbonate buffer with 1 mM IBMX and incubated at 30° C. for 30 min. Compounds were added to a final assay volume of 100 μl and incubated for 30 min at 30° C. […] The time-resolved energy transfer is measured by a TRF reader (Evotec Technologies GmbH), equipped with a ND:YAG laser as excitation source. The plate is measured twice with the excitation at 355 nm and at the emission with a delay of 100 ns and a gate of 100 ns, total exposure time 10 s at 730 (bandwidth 30 nm) or 645 nm (bandwidth 75 nm), respectively.
EC50 values were determined using Activity Base analysis (ID Business Solution, Limited).

[3] = CHO cells expressing human CB1, read-out: Ec50:CB1 - hu cAMP
[4] = CHO cells expressing human CB2, read-out: Ec50:CB2 - hu cAMP

T1 sequence (P21554 whole entry): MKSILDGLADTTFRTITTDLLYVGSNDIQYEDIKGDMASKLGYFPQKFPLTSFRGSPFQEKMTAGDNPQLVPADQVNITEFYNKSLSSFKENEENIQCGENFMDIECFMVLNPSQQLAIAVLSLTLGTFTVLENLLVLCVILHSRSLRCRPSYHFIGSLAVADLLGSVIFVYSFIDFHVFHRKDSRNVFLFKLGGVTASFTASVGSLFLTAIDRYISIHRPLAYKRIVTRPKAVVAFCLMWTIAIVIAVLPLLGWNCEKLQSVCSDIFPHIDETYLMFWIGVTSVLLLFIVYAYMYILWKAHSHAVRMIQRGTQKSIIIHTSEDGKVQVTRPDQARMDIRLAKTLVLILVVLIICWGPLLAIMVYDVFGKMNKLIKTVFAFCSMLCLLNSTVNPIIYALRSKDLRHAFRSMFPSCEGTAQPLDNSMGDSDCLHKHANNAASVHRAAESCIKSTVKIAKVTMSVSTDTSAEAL

SMILES | pEC50 [1, 3] | pEC50 [2, 4] | pEC50 [1] | pEC50 [2]
O=C(N1CCC(O)c2ccccc21)C12CC3CC(CC(C3)C1)C2 (stereo not drawn) [Example 9, Adamantan-1-yl-(4-hydroxy-3,4-dihydro-2H-quinolin-1-yl)-methanone] | < 5.00 | 6.58 |  | 
O=C1CCN(C(=O)C23CC4CC(CC(C4)C2)C3)c2ccccc21 [Example 3, 1-(Adamantane-1-carbonyl)-2,3-dihydro-1H-quinolin-4-one] | < 5.00 | 6.48 |  | 
CC(C)(C)NC(=O)C1CCN(C(=O)C23CC4CC(CC(C4)C2)C3)c2ccccc21 (stereo not drawn) [Example 4, 1-(Adamantane-1-carbonyl)-1,2,3,4-tetrahydro-quinoline-4-carboxylic acid tert-butylamide] | < 5.00 | 6.35 |  | 
O=C(N1CCc2cc([N+](=O)[O-])ccc21)C12CC3CC(CC(C3)C1)C2 [Example 14, Adamantan-1-yl-(5-nitro-2,3-dihydro-indol-1-yl)-methanone] | < 5.00 | 7.09 |  | 
O=C(N1CCc2ccccc2C1)C12CC3CC(CC(C3)C1)C2 [Example 1, Adamantan-1-yl-(3,4-dihydro-1H-isoquinolin-2-yl)-methanone] | < 5.00 | 7.16 |  | 
CC1(C)CN(C(=O)C23C[C@H]4C[C@@H](C2)C[C@@H](C3)C4)c2ccccc21 [Example 23, Adamantan-1-yl-(3,3-dimethyl-2,3-dihydro-indol-1-yl)-methanone] |  |  | < 5.00 | 7.80
O=C(N1CCc2cc(Br)ccc21)C12CC3CC(CC(C3)C1)C2 [Example 15, Adamantan-1-yl-(5-bromo-2,3-dihydro-indol-1-yl)-methanone] |  |  | < 5.00 | 7.94
O=C(N1CCc2c(F)cc(F)cc21)C12CC3CC(CC(C3)C1)C2 [Example 16, Adamantan-1-yl-(4,6-difluoro-2,3-dihydro-indol-1-yl)-methanone] |  |  | < 5.00 | 7.27
O=C(N1CCc2ccc([N+](=O)[O-])cc21)C12CC3CC(CC(C3)C1)C2 [Example 13, Adamantan-1-yl-(6-nitro-2,3-dihydro-indol-1-yl)-methanone] |  |  | < 5.00 | 7.71
O=C(NC12CC3CC(CC(C3)C1)C2)N1CCc2ccccc21 [Example 38, 2,3-Dihydro-indole-1-carboxylic acid adamantan-1-ylamide] | < 5.00 | 8.62 |  | 
COC(=O)c1cccc2c1CCN2C(=O)[C@]12C[C@H]3C[C@H](C[C@H](C3)C1)C2 [Example 24, 1-(Adamantane-1-carbonyl)-2,3-dihydro-1H-indole-4-carboxylic acid methyl ester] |  |  | < 5.00 | 7.38
COC(=O)c1ccc2c(c1)CCN2C(=O)C12CC3CC(CC(C3)C1)C2 [Example 19, 1-(Adamantane-1-carbonyl)-2,3-dihydro-1H-indole-5-carboxylic acid methyl ester] | < 5.00 | 7.15 |  | 
CC(C)OC1CCN(C(=O)C23CC4CC(CC(C4)C2)C3)c2ccccc21 (stereo not drawn) [Example 35, Adamantan-1-yl-(4-isopropoxy-3,4-dihydro-2H-quinolin-1-yl)-methanone] | < 5.00 | 6.91 |  | 
Cc1ccc2c(c1)CCN2C(=O)C12CC3CC(CC(C3)C1)C2 [Example 26, Adamantan-1-yl-(5-methyl-2,3-dihydro-indol-1-yl)-methanone] | < 5.00 | 7.98 |  | 
CCCCOC1CCN(C(=O)C23CC4CC(CC(C4)C2)C3)c2ccccc21 (stereo not drawn) [Example 34, Adamantan-1-yl-(4-butoxy-3,4-dihydro-2H-quinolin-1-yl)-methanone] |  |  | < 5.00 | 8.14
Cc1ccc2c(c1)N(C(=O)C13CC4CC(CC(C4)C1)C3)CC2 [Example 27, Adamantan-1-yl-(6-methyl-2,3-dihydro-indol-1-yl)-methanone] | < 5.00 | 8.18 |  | 
CN1CCN(C(=O)C23C[C@H]4C[C@@H](C2)C[C@@H](C3)C4)c2ccccc21 [Example 31, Adamantan-1-yl-(4-methyl-3,4-dihydro-2H-quinoxalin-1-yl)-methanone] |  |  | < 5.00 | 7.54

SMILES | pEC50 [1, 3] | pEC50 [2, 4] | pEC50 [1] | pEC50 [2]
COc1cccc2c1N(C(=O)C13CC4CC(CC(C4)C1)C3)CC2 [Example 22, Adamantan-1-yl-(7-methoxy-2,3-dihydro-indol-1-yl)-methanone] |  |  | < 5.00 | 7.58
O=C(C1[C@H]2C[C@@H]3C[C@@H](C[C@H]1C3)C2)N1CCc2ccccc21 (stereo partly drawn) [Example 37, Adamantan-2-yl-(2,3-dihydro-indol-1-yl)-methanone] |  |  | < 5.00 | 8.17
COc1cccc2c1CCN2C(=O)C12CC3CC(CC(C3)C1)C2 [Example 29, Adamantan-1-yl-(4-methoxy-2,3-dihydro-indol-1-yl)-methanone] | < 5.00 | 7.53 |  | 
O=C(N1CCOc2ccccc21)C12CC3CC(CC(C3)C1)C2 [Example 7, Adamantan-1-yl-(2,3-dihydro-benzo[1,4]oxazin-4-yl)-methanone] | < 5.00 | 6.74 |  | 
CC1c2ccccc2N(C(=O)C23C[C@H]4C[C@@H](C2)C[C@@H](C3)C4)C1C (stereo partly drawn) [Example 25, Adamantan-1-yl-(2,3-dimethyl-2,3-dihydro-indol-1-yl)-methanone] | < 5.00 | 6.79 |  | 
O=C(N1Cc2cc(Cl)c(N3CCOCC3)cc2C1)C12CC3CC(CC(C3)C1)C2 [Example 43, Adamantan-1-yl-(5-chloro-6-morpholin-4-yl-1,3-dihydro-isoindol-2-yl)-methanone] |  |  | < 5.00 | 7.09
O=C(N1Cc2cccc(F)c2C1)C12CC3CC(CC(C3)C1)C2 [Example 44, Adamantan-1-yl-(4-fluoro-1,3-dihydro-isoindol-2-yl)-methanone] | < 5.00 | 7.23 |  | 
COC(=O)C1Cc2ccccc2N(C(=O)C23CC4CC(CC(C4)C2)C3)C1 (stereo not drawn) [Example 5, 1-(Adamantane-1-carbonyl)-1,2,3,4-tetrahydro-quinoline-3-carboxylic acid methyl ester] | < 5.00 | 6.66 |  | 
O=C1C2CC3CC1CC(C(=O)N1CCc4ccccc41)(C3)C2 [Example 40, 5-(2,3-Dihydro-indole-1-carbonyl)-adamantan-2-one] | < 5.00 | 6.23 |  | 
CC(C)C1(CO)CCN(C(=O)C23CC4CC(CC(C4)C2)C3)c2ccccc21 (stereo not drawn) [Example 6, Adamantan-1-yl-(4-hydroxymethyl-4-isopropyl-3,4-dihydro-2H-quinolin-1-yl)-methanone] | < 5.00 | 6.40 |  | 
O=C(N1CCc2cc(F)c(F)cc21)C12CC3CC(CC(C3)C1)C2 [Example 39, Adamantan-1-yl-(5,6-difluoro-2,3-dihydro-indol-1-yl)-methanone] | < 5.00 | 7.75 |  | 
O=C(N1CCc2c1ccnc2Cl)C12CC3CC(CC(C3)C1)C2 [Example 20, Adamantan-1-yl-(4-chloro-2,3-dihydro-pyrrolo[3,2-c]pyridin-1-yl)-methanone] | < 5.00 | 6.56 |  | 
CC(C)N1CCN(C(=O)C23CC4CC(CC(C4)C2)C3)c2ccccc21 [Example 32, Adamantan-1-yl-(4-isopropyl-3,4-dihydro-2H-quinoxalin-1-yl)-methanone] |  |  | < 5.00 | 8.21
Cc1cccc2c1N(C(=O)C13CC4CC(CC(C4)C1)C3)CCC2 [Example 8, Adamantan-1-yl-(8-methyl-3,4-dihydro-2H-quinolin-1-yl)-methanone] | < 5.00 | 6.56 |  | 
CC1Cc2ccccc2N1C(=O)C12CC3CC(CC(C3)C1)C2 (stereo not drawn) [Example 10, Adamantan-1-yl-(2-methyl-2,3-dihydro-indol-1-yl)-methanone] | < 5.00 | 6.58 |  | 
O=C(N1Cc2ccc(F)cc2C1)C12CC3CC(CC(C3)C1)C2 [Example 45, Adamantan-1-yl-(5-fluoro-1,3-dihydro-isoindol-2-yl)-methanone] | < 5.00 | 7.38 |  | 
